# Data reported in article PMC13288762 (Frontiers in Medicine, 2026).
# Assays:
# [1] = system: Mdr2−/− mice (model of PSC); assay: Liver fibrosis in Mdr2−/− mice (FG/SR, hydroxyproline, desmin IF, qPCR); format: in vivo, mouse
# Protocol: (§1) Animal procedures were performed according to protocols approved by Indiana University School of Medicine Institutional Animal Care and Use Committee. […] Male Mdr2^−/− mice (n = 8) were collected at twelve-weeks for PSC model. Twelve-week-old male Friend Virus B NIH Jackson (FVB/NJ [FVB/wild type (WT) control], n = 8) mice were used as control WT for Mdr2^−/−.
# (§2) In all groups, serum, liver, cholangiocytes, and cholangiocyte supernatants were collected as described ([18], [19]). The collected liver was divided into three portions: (i) snap-frozen tissue; (ii) OCT-embedded blocks (5 μm cryosections) for immunofluorescence (IF); and (iii) formalin-fixed, paraffin-embedded (FFPE) blocks (4 μm sections) for immunohistochemistry (IHC).
# Collagen deposition was determined by Fast Green/Sirius Red staining in FFPE mouse liver sections and quantified by the Image-Pro Premier software (Rockville, MD). Liver fibrosis was also determined by measuring hydroxyproline levels in total liver samples using the hydroxyproline assay kit (MAK008-1KT; Millipore Sigma, Billerica, MA). To detect activated HSCs, IF for desmin (co-stained with CK-19) was performed in frozen liver sections with semi-quantification ([20], [21]). The mRNA expression of the fibrosis markers, collagen type I alpha 1 (Col1a1) and tissue inhibitor of metalloproteinases 2 (Timp2) and transforming growth factor beta 1 (Tgfb1) was measured in total mouse livers by qPCR.
# (§3) Since we found increased chymase levels in human PSC livers, we evaluated the pharmacological inhibition of chymase in modulating PSC in Mdr2^−/− mice. […] All treatment groups were compared to Mdr2^−/− mice.
# [2] = system: aortic aneurysm model; parameters: method as in PMID 31128093; details: 10 mg/kg for 4 weeks; cited from earlier work
# [3] = system: Mdr2−/− mice (model of PSC); assay: Ductular reaction and biliary senescence in Mdr2−/− mice (CK-19 IHC, p16 IF, qPCR); format: in vivo, mouse; details: 20 mg/kg IP
# Protocol: as §1, §2
# Ductular reaction was evaluated in FFPE mouse liver sections by IHC for CK-19 to specifically mark bile ducts. Stained slides were scanned by a digital scanner (Aperio AT2 scanner; Leica Biosystems). CK-19-positive area was quantified using the Image-Pro Premier software (Rockville, MD). Biliary senescence was evaluated by: (i) IF for p16 expression in frozen liver sections co-stained with CK-19 (to mark bile ducts) and (ii) mRNA expression of cellular senescence markers, cyclin dependent kinase inhibitor 2a (Cdkn2a; gene for p16), cyclin dependent kinase inhibitor 2c (Cdkn2c, gene for p18) and galactosidase, beta 1-like (Glb1l) in isolated mouse cholangiocytes ([3], [19]).
# as §3
# [4] = parameters: method as in earlier work; details: Phase 2 clinical trial, atopic dermatitis; cited from earlier work
# [5] = system: Mdr2−/− mice (model of PSC); assay: MC infiltration and activation in liver of Mdr2−/− mice (IHC, qPCR); format: in vivo, mouse; details: 20 mg/kg IP daily, 2 weeks
# Protocol: as §1, §2
# (§4) Liver inflammation was evaluated by IHC for F4/80 in FFPE mouse liver sections, and positive cells were quantified by Image-Pro Premier software (Rockville, MD). Liver MC infiltration was detected with IHC for tryptase β-2 (Tpsb2) and mucosal MC chymase-1 (mMCP1) in liver sections. MCs were semi-quantified as Tpsb2 or mMCP1 positivite cell number/total area with Image-Pro Premier software (Rockville, MD). MC activation was determined by qPCR for Fc fragment of IgE, high affinity I, receptor for alpha polypeptide (Fcer1a), Mcpt1 and Tpsb2 in total liver samples.
# as §3
# [6] = system: Mdr2−/− mice (model of PSC); assay: Liver damage, bile acids and inflammation in Mdr2−/− mice (H&E, TBA kit, F4/80 IHC); format: in vivo, mouse; details: 20 mg/kg IP daily, 2 weeks
# Protocol: as §1, §2
# Liver damage was assessed by hematoxylin and eosin (H&E) staining in FFPE mouse liver sections and scored in a coded fashion to determine portal inflammation. Serum and liver total bile acids (TBAs) were determined using a TBA Assay Kit (Colorimetric, Sigma-Aldrich).
# as §4, §3
# [7] = system: Mdr2−/− mice (model of PSC); parameters: method as in PMID 10711453; details: cited from earlier work
# [8] = 20 mg/kg IP daily, 2 weeks, qPCR total liver
# [9] = 20 mg/kg IP daily, 2 weeks, vs untreated mice
# [10] = male Mdr2−/− mice, vs untreated Mdr2−/−, qPCR total liver
compound,measurement,setting,value
CCC[C@@H](NC(=O)N1CC(=NOCC)NC[C@H](Cc2cc(Cl)ccc2OC)C1=O)c1ccc(C(=O)O)c(N)c1 [INVA8001],Col1a1 gene expression in liver,[1]; [8],significantly reduced
same,Tgfb1 gene expression in liver,[1]; [8],significantly reduced
same,Timp2 gene expression in liver,[1]; [8],significantly reduced
same,"hepatic fibrosis, FG/SR staining",[1]; [9],decreased
same,liver hydroxyproline content,[1]; [9],lowered
same,desmin immunoreactivity (HSC activation),"[1]; 20 mg/kg IP, IF liver sections",significantly reduced
same,efficacy in a model of aortic aneurysm,[2],effective
same,p16 immunoreactivity in liver,[3]; IF co-stained with CK-19,reduced
same,bile duct mass (CK-19-positive bile ducts),[3]; IHC,significant reduction
same,Cdkn2a expression in isolated cholangiocytes,[3]; qPCR isolated cholangiocytes,reduced
same,Cdkn2c expression in isolated cholangiocytes,[3]; qPCR isolated cholangiocytes,reduced
same,Glb1l expression in isolated cholangiocytes,[3]; qPCR isolated cholangiocytes,reduced
same,Tgfb1 expression in isolated cholangiocytes,[3]; qPCR isolated cholangiocytes,reduced
same,Cdkn2a mRNA expression in total liver,[3]; qPCR total liver,reduced
same,"safety and tolerability, adverse effects",[4],no significant adverse effects reported
same,number of chymase (mMCP1)-positive cells in liver,"[5]; Mdr2−/− mice, IHC",significant reduction
same,number of tryptase (Tpsb2)-positive cells in liver,"[5]; Mdr2−/− mice, IHC",significant reduction
same,Fcer1a mRNA expression in liver,[5]; [10],attenuated
same,Mcpt1 mRNA expression in liver,[5]; [10],attenuated
same,Tpsb2 mRNA expression in liver,[5]; [10],decreasing trend (not statistically significant)
same,histological damage (H&E),[6],amelioration
same,portal inflammation (H&E),[6],amelioration
same,liver enzymes,[6]; data not shown,no significant changes
same,hepatic total bile acid (TBA) accumulation,[6]; liver tissue,significant reduction
same,number of infiltrating macrophages (F4/80 staining),"[6]; portal tracts, IHC",significantly reduced
same,serum total bile acid (TBA) accumulation,[6]; serum,significant reduction
O=C(O)c1cc(=O)c2c(OCC(O)COc3cccc4oc(C(=O)O)cc(=O)c34)cccc2o1 [cromolyn sodium],"levels of MC mediators, inflammation, tissue damage, and fibrosis",[7],attenuates
